ChEMBL document CHEMBL5247652, “Discovery of Novel Substrate-Competitive Lysine Methyltransferase G9a Inhibitors as Anticancer Agents” (J Med Chem, 2023)
≈ marks a conversion by molar mass, not a printed value.

Columns and labels:
[1] = molecular target: T1, Histone-lysine N-methyltransferase EHMT2 (Homo sapiens, UniProt Q96KQ7); assay: Inhibition of N-terminal GST-tagged human recombinant G9a (785 to 1210 residues) expressed in baculovirus infected Sf9 cells incubated for 1 hr by AlphaLISA analysis
T1 sequence (Q96KQ7 whole entry): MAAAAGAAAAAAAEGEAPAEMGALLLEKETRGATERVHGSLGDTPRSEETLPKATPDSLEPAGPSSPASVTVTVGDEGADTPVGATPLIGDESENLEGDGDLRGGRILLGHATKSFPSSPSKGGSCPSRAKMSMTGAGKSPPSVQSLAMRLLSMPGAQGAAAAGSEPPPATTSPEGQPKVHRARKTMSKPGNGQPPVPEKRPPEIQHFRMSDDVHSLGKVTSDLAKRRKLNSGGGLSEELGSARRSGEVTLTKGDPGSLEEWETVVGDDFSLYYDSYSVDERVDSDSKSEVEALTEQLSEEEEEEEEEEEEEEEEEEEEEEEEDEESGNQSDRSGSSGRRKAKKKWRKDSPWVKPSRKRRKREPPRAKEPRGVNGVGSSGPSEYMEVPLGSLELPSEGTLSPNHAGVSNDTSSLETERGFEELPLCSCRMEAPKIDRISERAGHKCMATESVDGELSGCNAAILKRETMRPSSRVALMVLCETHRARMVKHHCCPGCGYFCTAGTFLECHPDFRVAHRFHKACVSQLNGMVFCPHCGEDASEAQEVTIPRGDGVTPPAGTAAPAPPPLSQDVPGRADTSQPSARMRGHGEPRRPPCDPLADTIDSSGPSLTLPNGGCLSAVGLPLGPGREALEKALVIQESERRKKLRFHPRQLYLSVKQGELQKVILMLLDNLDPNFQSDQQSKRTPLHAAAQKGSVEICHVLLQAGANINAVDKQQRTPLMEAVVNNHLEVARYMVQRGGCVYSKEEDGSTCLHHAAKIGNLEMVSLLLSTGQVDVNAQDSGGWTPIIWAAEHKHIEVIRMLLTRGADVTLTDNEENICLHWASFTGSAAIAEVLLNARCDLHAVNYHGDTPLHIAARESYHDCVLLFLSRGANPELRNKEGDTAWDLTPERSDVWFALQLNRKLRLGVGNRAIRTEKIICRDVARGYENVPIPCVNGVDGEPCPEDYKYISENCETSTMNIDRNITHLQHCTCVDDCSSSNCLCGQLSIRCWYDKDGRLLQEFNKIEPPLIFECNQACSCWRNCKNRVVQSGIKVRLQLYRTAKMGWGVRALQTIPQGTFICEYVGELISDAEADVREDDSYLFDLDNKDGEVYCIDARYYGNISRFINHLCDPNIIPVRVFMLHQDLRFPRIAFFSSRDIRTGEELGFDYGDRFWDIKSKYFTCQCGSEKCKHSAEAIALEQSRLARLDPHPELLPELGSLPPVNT

[2] = Aqueous solubility of compound at pH 7.4 measured for 1 hr by UV-plate reader analysis; assay type: physicochemical; settings: buffer
[3] = Permeability of compound by PAMPA assay; assay type: ADME; settings: read-out: permeability
[4] = Microsomal stability in mouse liver microsomes assessed as parent compound remaining after 30 mins in presence of NADPH by LC -MS/MS analysis; assay type: ADME, Microsome; settings: read-out: Stability
[5] = Microsomal stability in human liver microsomes assessed as parent compound remaining after 30 mins in presence of NADPH by LC -MS/MS analysis; assay type: ADME, Microsome; settings: read-out: Stability

Compound	IC50 [1]	solubility at 1 h [2]	Papp [3]	remaining at 0.5 h [4]	remaining at 0.5 h [5]
CCCC[C@@H](NC(=O)c1[nH]c2c(c1C)C(=O)CC(C)(C)C2)C(=O)Nc1ccccc1	8.64 µM	–	–	–	–
CCCC[C@H](NC(=O)c1[nH]c2c(c1C)C(=O)CC1(CCOCC1)C2)C(=O)Nc1ccccc1	2.08 µM	–	–	–	–
Cc1c(C(=O)N[C@@H](CCN(C)C)c2nc3ccccc3[nH]2)[nH]c2c1C(=O)CC(C)(C)C2	17 µM	–	–	–	–
CCCC[C@H](NC(=O)c1[nH]c2c(c1C(C)(C)C)C(=O)CC(C)(C)C2)C(=O)Nc1ccccc1	> 50 µM	–	–	–	–
CCCC[C@H](NC(=O)c1[nH]c2c(c1C(C)C)C(=O)CC(C)(C)C2)C(=O)Nc1ccccc1	0.0724 µM	–	–	–	–
CCCC[C@H](NC(=O)c1[nH]c2c(c1C)C(=O)CC(C)(C)C2)C(=O)Nc1ccccc1	0.355 µM	–	–	–	–
CCCC[C@H](NC(=O)c1[nH]c2c(c1CC)C(=O)CC(C)(C)C2)C(=O)Nc1ccccc1	0.178 µM	–	–	–	–
CCCC[C@H](NC(=O)c1[nH]c2c(c1C)C(=O)CC1(CCCCC1)C2)C(=O)Nc1ccccc1	1.47 µM	–	–	–	–
CCCC[C@H](NC(=O)c1[nH]c2c(c1C)C(=O)CC(C)(C)C2)c1nc2ccccc2[nH]1	1.9 µM	–	–	–	–
Cc1c(C(=O)N[C@@H](CCCN(C)C)c2nc3ccccc3[nH]2)[nH]c2c1C(=O)CC(C)(C)C2	> 50 µM	–	–	–	–
CSCC[C@H](NC(=O)c1[nH]c2c(c1C)C(=O)CC(C)(C)C2)c1nc2ccccc2[nH]1	1.43 µM	–	–	–	–
CCCC[C@H](NC(=O)c1[nH]c2c(c1CCC)C(=O)CC(C)(C)C2)C(=O)Nc1ccccc1	0.306 µM	–	–	–	–
CCCC[C@@H](NC(=O)c1[nH]c2c(c1C)C(=O)CC(C)(C)C2)c1nc2ccccc2[nH]1	4.5 µM	–	–	–	–
CCCCC(NC(=O)c1[nH]c2c(c1C)C(=O)CC(C)(C)C2)C(=O)Nc1ccc(C)cc1 (racemic)	0.491 µM	1.8 µM (≈ 0.762 µg/mL)	–	–	–
Cc1c(C(=O)NC(CCC2CCC2)C(=O)Nc2ccccc2)[nH]c2c1C(=O)CC(C)(C)C2 (racemic)	0.636 µM	–	–	–	–
CCCCC(NC(=O)c1[nH]c2c(c1C)C(=O)CC(C)(C)C2)C(=O)Nc1cccc(Cl)c1 (racemic)	1.54 µM	4.5 µM (≈ 2 µg/mL)	–	–	–
CCCCC(NC(=O)c1[nH]c2c(c1C)C(=O)CCC2)C(=O)Nc1ccccc1 (racemic)	20.9 µM	–	–	–	–
CCCCC(NC(=O)c1[nH]c2c(c1C)C(=O)CC(C)(C)C2)C(=O)Nc1ccc(C(=O)O)cc1 (racemic)	1.8 µM	–	–	–	–
CCCCC(NC(=O)c1[nH]c2c(c1C)C(=O)CC(C)(C)C2)C(=O)Nc1ccccc1Cl (racemic)	1.08 µM	13.9 µM (≈ 6.17 µg/mL)	7.16 ×10⁻⁶ cm/s	0.1%	30%
CCCCC(NC(=O)c1[nH]c2c(c1C)C(=O)CC(C)(C)C2)C(=O)Nc1ccc(F)cc1 (racemic)	0.909 µM	16.5 µM (≈ 7.05 µg/mL)	23.5 ×10⁻⁶ cm/s	37.5%	83.8%
CCCCC(NC(=O)c1[nH]c2c(c1C)C(=O)CC(C)(C)C2)C(=O)Nc1ccc(C(N)=O)cc1 (racemic)	0.526 µM	104 µM (≈ 47.1 µg/mL)	0.62 ×10⁻⁶ cm/s	92.2%	90.9%
CCCCC(NC(=O)c1[nH]c2c(c1C)C(=O)CC(C)(C)C2)C(=O)Nc1cccc(C#N)c1 (racemic)	0.685 µM	14.5 µM (≈ 6.3 µg/mL)	7.78 ×10⁻⁶ cm/s	6.4%	79.1%
Cc1c(C(=O)NC(CCc2ccccc2)C(=O)Nc2ccccc2)[nH]c2c1C(=O)CC(C)(C)C2 (racemic)	> 5 µM	–	–	–	–

Compound	IC50 [1]	solubility at 1 h [2]	Papp [3]	remaining at 0.5 h [4]	remaining at 0.5 h [5]
CCCCC(NC(=O)c1[nH]c2c(c1C)C(=O)CC(C)(C)C2)C(=O)Nc1ccccc1 (racemic)	–	20.1 µM (≈ 8.23 µg/mL)	12.5 ×10⁻⁶ cm/s	19.9%	77.8%
CCCCC(NC(=O)c1[nH]c2c(c1C)C(=O)CC(C)(C)C2)C(=O)Nc1ccc(S(C)(=O)=O)cc1 (racemic)	2.96 µM	43.6 µM (≈ 21.3 µg/mL)	1.39 ×10⁻⁶ cm/s	–	–
CCCC(NC(=O)c1[nH]c2c(c1C)C(=O)CC(C)(C)C2)C(=O)Nc1ccccc1 (racemic)	4.04 µM	–	–	–	–
Cc1c(C(=O)NC(CCCCN)C(=O)Nc2ccccc2)[nH]c2c1C(=O)CC(C)(C)C2 (racemic)	27.6 µM	–	–	–	–
CCCCC(NC(=O)c1[nH]c2c(c1C)C(=O)CC(C)(C)C2)C(=O)Nc1ccc(Cl)cc1 (racemic)	1.52 µM	5.1 µM (≈ 2.26 µg/mL)	–	–	–
CCCCC(NC(=O)c1[nH]c2c(c1C)C(=O)CC(C)(C)C2)C(=O)N(C)c1ccccc1 (racemic)	> 50 µM	4.9 µM (≈ 2.08 µg/mL)	–	–	–
CCCCC(NC(=O)c1[nH]c2c(c1C)C(=O)CC(C)(C)C2)C(=O)Nc1cccc(OC)c1 (racemic)	1.21 µM	3 µM (≈ 1.32 µg/mL)	–	–	–
CCCCC(NC(=O)c1[nH]c2c(c1C)C(=O)CC(C)(C)C2)C(=O)Nc1ccccc1OC (racemic)	0.802 µM	7.2 µM (≈ 3.16 µg/mL)	49.4 ×10⁻⁶ cm/s	1.7%	11.8%
CCCCC(NC(=O)c1[nH]c2c(c1C)C(=O)CC(C)(C)C2)C(=O)Nc1ccc(C#N)cc1 (racemic)	0.446 µM	12.9 µM (≈ 5.61 µg/mL)	3.68 ×10⁻⁶ cm/s	63.9%	89.5%
Cc1c(C(=O)NC(CCC2(C)CC2)C(=O)Nc2ccccc2)[nH]c2c1C(=O)CC(C)(C)C2 (racemic)	1.36 µM	–	–	–	–
CCCCCC(NC(=O)c1[nH]c2c(c1C)C(=O)CC(C)(C)C2)C(=O)Nc1ccccc1 (racemic)	> 50 µM	–	–	–	–
Cc1c(C(=O)NC(CCC(C)C)C(=O)Nc2ccccc2)[nH]c2c1C(=O)CC(C)(C)C2 (racemic)	0.291 µM	–	–	–	–
Cc1c(C(=O)NC(CC2CC2)C(=O)Nc2ccccc2)[nH]c2c1C(=O)CC(C)(C)C2 (racemic)	1.16 µM	–	–	–	–
CCCCC(NC(=O)c1c(C)c2c(n1C)CC(C)(C)CC2=O)C(=O)Nc1ccccc1 (racemic)	> 50 µM	–	–	–	–
CCCCC(NC(=O)c1[nH]c2c(c1C)C(=O)CC(C)(C)C2)C(=O)Nc1ccc(OC)cc1 (racemic)	1.81 µM	5.9 µM (≈ 2.59 µg/mL)	–	–	–
CSCCC(NC(=O)c1[nH]c2c(c1C)C(=O)CC(C)(C)C2)c1nc2ccccc2[nH]1 (racemic)	5.32 µM	–	–	–	–
CCCCC(NC(=O)c1[nH]c2c(c1C)C(=O)CC(C)(C)C2)C(=O)Nc1ccccc1C#N (racemic)	1.57 µM	15.5 µM (≈ 6.74 µg/mL)	7.85 ×10⁻⁶ cm/s	5.5%	40.8%
Cc1c(C(=O)NC(COC2CC2)C(=O)Nc2ccccc2)[nH]c2c1C(=O)CC(C)(C)C2 (racemic)	1.6 µM	–	–	–	–
Cc1c(C(=O)NC(CCCN)C(=O)Nc2ccccc2)[nH]c2c1C(=O)CC(C)(C)C2 (racemic)	12.3 µM	–	–	–	–
CCCCC(NC(=O)c1oc2c(c1C)C(=O)CC(C)(C)C2)C(=O)Nc1ccccc1 (racemic)	> 50 µM	–	–	–	–
CCCCC(NC(=O)c1[nH]c2c(c1C)CCC(C)(C)C2)C(=O)Nc1ccccc1 (racemic)	> 50 µM	–	–	–	–
CC(C)NCC(O)COc1cccc2ccccc12 (centres undefined) [PROPRANOLOL]	–	–	19.4 ×10⁻⁶ cm/s	–	–
